We go through 7 molecules from ChEMBL document CHEMBL1201862, “PubChem BioAssay data set” (2004).

Activity calls are given as the source filed them.

Assay [1] deals with T1, Runt-related transcription factor 1/Core-binding factor subunit beta (Homo sapiens, UniProt Q01196+Q13951). The assay is described as follows: disruptors of Runt domain/CBFb-SMMHC interaction – biochemical, FRET, Cerulean-Runt, Venus-CBFb-SMMHC, uHTS, […] (AID 1434). Format: protein assay.
The next assay deals with T2, Bcl-2-like protein 10 (Homo sapiens, UniProt Q9HD36).
T2 sequence (Q9HD36 whole entry): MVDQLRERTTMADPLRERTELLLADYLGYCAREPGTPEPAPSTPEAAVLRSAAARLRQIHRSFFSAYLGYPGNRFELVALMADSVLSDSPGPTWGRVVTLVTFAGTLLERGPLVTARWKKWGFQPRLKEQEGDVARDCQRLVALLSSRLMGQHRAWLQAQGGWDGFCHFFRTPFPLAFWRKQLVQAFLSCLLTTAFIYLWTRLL
The assay is described as follows: Bcl-B/TR3 peptide binding disruption – biochemical, fluorescence polarization, FITC-TR3 peptide, selectivity assay for Bfl-1 inhibitor project, primary screen (AID 748).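 Also: fluorescence polarization from a fluorescein-labelled TR3 peptide binding purified Bcl-B.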

For assay [2], the target named is T1, Runt-related transcription factor 1/Core-binding factor subunit beta. The assay is described as follows: Runt domain/CBFb-SMMHC interaction disruptors – biochemical, TR-FRET (AID 1438). Format: protein assay.
The target in assay [3] is Glutathione-S-transferase (Schistosoma japonicum, UniProt Q26513). The assay is described as follows: GST-antibody interaction or FRET quenching – biochemical, TR-FRET, artefact control for Vif-APOBEC3G degradation inhibitor project, dose response (AID 1117362). The format is functional.
For assay [4], the target named is T3, Mu-type opioid receptor (Homo sapiens, UniProt P35372). In words: mu opioid receptor activators, image-based, SAR follow-up (AID 2352). The format is functional.
For assay [5], the target named is T4, Delta-type opioid receptor (Homo sapiens, UniProt P41143). In words: DOR agonists, SAR follow-up, image-based (AID 2370). Format: functional.
For assay [6], the target named is T5, Kappa-type opioid receptor (Homo sapiens, UniProt P41145). The assay is described as follows: kappa opioid receptor blockers, image-based, SAR follow-up (AID 2348). Format: functional.
The target of assay [7] is T3, Mu-type opioid receptor. The assay is described as follows: mu opioid receptor blockers – image-based, SAR follow-up (AID 2420).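 Also: compounds added before stimulation of receptor with agonist DAMGO.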 The format is functional.
For assay [8], the target named is T5, Kappa-type opioid receptor. The assay is described as follows: kappa opioid receptor activation potency – imaging, image-based, SAR follow-up (AID 2359). Format: functional.
In assay [9] the target is T4, Delta-type opioid receptor. In words: delta opioid receptor blockers – image-based, SAR follow-up (AID 2357). Format: functional.
The target of assay [10] is T5, Kappa-type opioid receptor. The assay is described as follows: kappa opioid receptor blockers, cell-based, luminescence, beta-arrestin, SAR follow-up (AID 2285). The format is functional.
The target in assay [11] is T6, Tyrosine-protein phosphatase non-receptor type 7 (Homo sapiens, UniProt P35236).
T6 sequence (P35236 whole entry): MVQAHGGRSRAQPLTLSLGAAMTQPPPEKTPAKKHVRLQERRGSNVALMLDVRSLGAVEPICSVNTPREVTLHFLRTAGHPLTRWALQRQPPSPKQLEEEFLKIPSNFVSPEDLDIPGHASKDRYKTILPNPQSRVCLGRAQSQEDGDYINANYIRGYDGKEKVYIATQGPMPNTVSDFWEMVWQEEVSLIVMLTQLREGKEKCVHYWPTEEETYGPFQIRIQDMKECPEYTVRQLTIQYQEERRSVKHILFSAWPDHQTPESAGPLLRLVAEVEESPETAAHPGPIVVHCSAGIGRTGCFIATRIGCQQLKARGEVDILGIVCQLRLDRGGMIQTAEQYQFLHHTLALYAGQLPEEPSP
The format is functional.

Assay [12] has as its target T7, Tyrosine-protein phosphatase non-receptor type 22 (Homo sapiens, UniProt Q9Y2R2).
T7 sequence (Q9Y2R2 whole entry): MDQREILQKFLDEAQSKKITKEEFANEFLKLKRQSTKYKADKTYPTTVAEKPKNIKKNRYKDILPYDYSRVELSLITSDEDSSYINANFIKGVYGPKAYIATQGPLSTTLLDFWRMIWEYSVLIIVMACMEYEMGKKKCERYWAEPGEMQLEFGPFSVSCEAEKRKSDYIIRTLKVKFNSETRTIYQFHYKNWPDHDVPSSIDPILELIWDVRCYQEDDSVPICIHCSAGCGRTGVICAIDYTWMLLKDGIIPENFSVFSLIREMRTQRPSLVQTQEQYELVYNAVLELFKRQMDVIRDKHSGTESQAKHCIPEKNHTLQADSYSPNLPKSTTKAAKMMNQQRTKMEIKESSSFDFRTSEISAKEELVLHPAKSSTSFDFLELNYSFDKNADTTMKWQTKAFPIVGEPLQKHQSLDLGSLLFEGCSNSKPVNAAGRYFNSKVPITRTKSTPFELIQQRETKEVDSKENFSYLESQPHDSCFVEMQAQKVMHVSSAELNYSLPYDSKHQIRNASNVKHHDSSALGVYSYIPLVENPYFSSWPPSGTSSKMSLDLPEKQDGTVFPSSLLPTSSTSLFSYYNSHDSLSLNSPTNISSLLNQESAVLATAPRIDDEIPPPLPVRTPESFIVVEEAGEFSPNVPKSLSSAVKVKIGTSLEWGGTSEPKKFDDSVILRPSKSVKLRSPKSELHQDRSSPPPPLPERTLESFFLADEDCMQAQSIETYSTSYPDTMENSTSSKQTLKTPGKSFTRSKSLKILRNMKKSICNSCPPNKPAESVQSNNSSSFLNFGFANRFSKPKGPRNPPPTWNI
The format is functional.

Assay [13] addresses T7, Tyrosine-protein phosphatase non-receptor type 22. Format: functional. This is another data set of the same source.
The target in a further assay is Troponin, cardiac muscle (Homo sapiens, UniProt P19429+P45379+P63316). The assay is described as follows: Fluorescence-based biochemical high throughput dose response assay for activators of the calcium sensitivity of cardiac Regulated Thin Filaments (RTF). [Related pubchem assays (depositor defined):AID493008, AID493018, AID504382, AID504383]. The format is protein-complex assay.

The target in assay [14] is T8, Endoribonuclease toxin MazF (Escherichia coli K-12, UniProt P0AE70).
T8 sequence (P0AE70 whole entry): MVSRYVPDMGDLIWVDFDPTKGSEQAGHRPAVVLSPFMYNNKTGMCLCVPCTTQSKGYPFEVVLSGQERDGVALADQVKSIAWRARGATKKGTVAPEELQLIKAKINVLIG
In words: activation of MazEF endoribonuclease cleavage – biochemical, fluorescence, single-stranded RNA substrate, uHTS hits, dose response (AID 588481). Format: functional.

The target in assay [15] is T8, Endoribonuclease toxin MazF. The assay is described as follows: substrate-only fluorescence increase artefacts – biochemical, single-stranded RNase substrate, counter-screen for MazEF activator project, dose response (AID 588502). Format: functional.
Assay [16] concerns the target T9, G-protein coupled receptor 55 (Homo sapiens, UniProt Q9Y2T6). The assay is described as follows: selective activators of receptor GPR55 – imaging, U2OS cells, beta-arrestin-GFP redistribution, primary screen (AID 1961). Format: functional.
Assay [17] deals with T10, Cannabinoid receptor 2 (Homo sapiens, UniProt P34972). The assay is described as follows: SAR analysis of antagonists of the Cannabinoid Receptor 2 using an Image-Based Assay - Set 2. [Related pubchem assays (depositor defined):AID1961, AID1965]. The format is functional.
The target of assay [18] is T10, Cannabinoid receptor 2. The assay is described as follows: SAR analysis of agonists of the Cannabinoid Receptor 2 using an Image-Based Assay - Set 2. [Related pubchem assays (depositor defined):AID1961, AID1965]. The format is functional.
Assay [19] deals with T9, G-protein coupled receptor 55. In words: SAR analysis of selective Agonists of GPR55 using an Image-Based Assay. [Related pubchem assays (depositor defined):AID1961, AID1965]. Format: functional.
The next assay addresses Cannabinoid receptor 1 (Homo sapiens, UniProt P21554). In words: SAR analysis of antagonists of the Cannabinoid Receptor 1 using an Image-Based Assay. [Related pubchem assays (depositor defined):AID1961, AID1965]. Format: functional.
Assay [20] deals with T11, Dual specificity protein phosphatase 3 (Homo sapiens, UniProt P51452). In words: VHR1 phosphatase inhibitors, primary screen, biochemical, absorbance, uHTS (AID 1654).
In assay [21] the target is T12, Voltage-gated N-type calcium channel alpha-1B subunit/Amyloid beta A4 precursor protein-binding family A member 1 (Homo sapiens, UniProt Q00975+Q02410). Format: protein assay.
In assay [22] the target is T12, Voltage-gated N-type calcium channel alpha-1B subunit/Amyloid beta A4 precursor protein-binding family A member 1. Format: protein assay. This is another data set of the same source.
Assay [23] addresses T11, Dual specificity protein phosphatase 3. In words: VHR1 phosphatase inhibitors, biochemical (AID 1878).
Assay [24] deals with T13, Dual specificity protein phosphatase 6 (Rattus norvegicus, UniProt Q64346).
T13 sequence (Q64346 whole entry): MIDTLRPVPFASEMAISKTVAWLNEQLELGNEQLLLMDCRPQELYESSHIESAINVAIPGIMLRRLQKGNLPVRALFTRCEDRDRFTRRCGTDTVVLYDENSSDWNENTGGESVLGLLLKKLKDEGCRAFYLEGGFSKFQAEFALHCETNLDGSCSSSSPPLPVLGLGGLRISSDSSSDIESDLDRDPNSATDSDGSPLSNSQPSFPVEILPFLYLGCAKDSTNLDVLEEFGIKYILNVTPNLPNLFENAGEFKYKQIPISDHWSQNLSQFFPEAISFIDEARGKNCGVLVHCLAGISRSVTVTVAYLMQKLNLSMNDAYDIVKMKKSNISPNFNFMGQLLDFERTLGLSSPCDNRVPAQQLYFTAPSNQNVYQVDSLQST
In words: inhibition of rat DUSP6 enzyme activity – biochemical, in vitro, primary screen (AID 425).

The target in assay [25] is Induced myeloid leukemia cell differentiation protein Mcl-1 (Homo sapiens, UniProt Q07820). The format is functional.
In assay [26] the target is Eukaryotic translation initiation factor 4E (Mus musculus, UniProt P63073). In words: blockers of eIF4G binding by eIF4E – biochemical, TR-FRET, dose response (AID 855).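 Also: potency for disrupting eIF4E binding to eIF4GI seen as loss of FRET.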 Format: functional.
The target in assay [27] is Signal transducer and activator of transcription 3 (Homo sapiens, UniProt P40763). In words: STAT3 blockade with qPCR and toxicity readouts – cell-based, STAT1 panel, cytotoxicity, late-stage follow-up, panel member STAT3 Inhibition (AID 2078).
For assay [28], the target named is Signal transducer and activator of transcription 1-alpha/beta (Homo sapiens, UniProt P42224). The assay is described as follows: STAT3 blockade with qPCR and toxicity readouts – cell-based, STAT1 panel, cytotoxicity, late-stage follow-up, panel member STAT1 Inhibition (AID 2078).
Assay [29] concerns the target T5, Kappa-type opioid receptor. In words: SAR analysis of small molecule agonists of the kappa opioid receptor via a luminescent beta-arrestin assay - Set 3. [Related pubchem assays (depositor defined):AID1777, AID1785, AID1786, AID1966, AID2133, AID2136, AID2284, AID2500]. The format is functional.

For the molecule `CN1CCc2c(sc3c2c(NCc2ccco2)nc2nnnn23)C1`, the IC50 in assay [1] was 80 µM (inactive); at Bcl-2-like protein 10, 38.8 µM (active); in assay [2], 56.3 µM (inactive); in assay [3] it was 31.1 µM (active).

`Cc1ccc(C)c(N2CCN(CCCNC(=O)CCn3c(=O)c4cccn4c4cccnc43)CC2)c1`: the EC50 (on Mu-type opioid receptor [4]; in [5]; in [8]) was > 32 µM (inactive) throughout. Also, the IC50 in assay [6] was > 32 µM (inactive); on Mu-type opioid receptor [7], > 32 µM (inactive); in [9], > 32 µM (inactive); in assay [10], > 10 µM (inactive).

In the case of `Cc1ccc(N=Nc2c(O)n(CN3CCOCC3)c3ccccc23)cc1`, the IC50 in assay [11], in assay [12] and in assay [13] was > 79.4 µM (inactive) in each case. In addition, the EC50 at Troponin, cardiac muscle is > 71.5 µM (inactive); in assay [14] it was 39.4 µM (inactive); in assay [15], 50.5 µM (inactive).

Take `CN(C)S(=O)(=O)c1ccc(N2CCCC2)c(C(=O)N2CCN(c3ccc([N+](=O)[O-])cc3)CC2)c1`: the EC50 was 0.689 µM (active) in assay [16], > 32 µM (inactive) on Cannabinoid receptor 2 [18] and 0.66 µM (active) in assay [19]. For the same molecule, the IC50 at Cannabinoid receptor 2 [17] and at Cannabinoid receptor 1 was > 32 µM (inactive) in each case.

Turning to `COc1cc(/C=C2\SC(=O)N(c3ccc(Cl)cc3)C2=O)cc([N+](=O)[O-])c1O`, the IC50 was 2.92 µM (active) in [20]; > 56.8 µM (not active) in assay [21]; > 50 µM (inactive) in assay [22]; 2.3 µM (active) in [23]; > 158 µM (not active) in [24]; 3.07 µM (active) in [25]. In addition, the IC50 in [26] is 50 µM (inactive).

With `O=C(c1ccccc1)C1CCN(c2ncnc3sc4c(c23)CCCC4)CC1`, the results for the IC50 in assay [27] and in [28] were > 18.6 µM (inactive) and > 55.7 µM (inactive), respectively.

For the molecule `Cc1ccc2nc(O)c(CN(Cc3ccccc3)C(=O)c3ccccn3)cc2c1`, the EC50 in assay [29] was 9.25 µM (active).
